Measurements reported in patent US20120029187A1, “HALOALKYLSULFONANILIDE DERIVATIVE” (Nissan Chemical Industries, Ltd., priority 2009, published 2012).

Experiments:
Type in all cases: in vivo
[1] = tested on: giant foxtail; assay: Test Example 3: herbicidal effects in soil treatment; details: dose 3.2 g/a
Procedure, shortened: (§1)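 Seeds were sown in sterilized diluvial soil and covered with about 1.5 cm of soil. Compounds, formulated as emulsifiable concentrates and diluted with water, were sprayed evenly over the soil surface at set doses in g/a. Herbicidal effect was scored on a rating scale three weeks later.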

[2] = tested on: velvetleaf; assay: as above; details: dose 3.2 g/a
Procedure, shortened: as §1

[3] = tested on: water foxtail; assay: as above; details: dose 3.2 g/a
Procedure, shortened: as §1

[4] = tested on: common ragweed; assay: as above; details: dose 3.2 g/a
Procedure, shortened: as §1

[5] = tested on: Italian ryegrass; assay: as above; details: dose 3.2 g/a
Procedure, shortened: as §1

[6] = tested on: redroot pigweed; assay: as above; details: dose 3.2 g/a
Procedure, shortened: as §1

[7] = tested on: common chickweed; assay: as above; details: dose 3.2 g/a
Procedure, shortened: as §1

[8] = tested on: large crabgrass; assay: as above; details: dose 3.2 g/a
Procedure, shortened: as §1

[9] = tested on: common lambsquater; assay: as above; details: dose 3.2 g/a
Procedure, shortened: as §1

[10] = tested on: barnyardgrass; assay: as above; details: dose 3.2 g/a
Procedure, shortened: as §1

[11] = tested on: posumbu knotweed; assay: as above; details: dose 3.2 g/a
Procedure, shortened: as §1

[12] = tested on: bulrush; assay: Test Example 1: herbicidal effects in preemergence treatment under submerged conditions; details: dose 2.52 g/a
Procedure, shortened: (§2)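 Submerged conditions, 4 cm water over alluvial soil. Weeds sown and 2.5-leaf rice transplanted; compound applied preemergence to water surface, doses in g per are. Greenhouse, 25 to 30° C., three weeks, then 0–5 mortality rating.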

[13] = tested on: barnyardgrass; assay: as above; details: dose 2.52 g/a
Procedure, shortened: as §2

[14] = tested on: ducksalad; assay: as above; details: dose 2.52 g/a
Procedure, shortened: as §2

[15] = tested on: transplanted rice; assay: Test Example 1: preemergence treatment under submerged conditions, effect on crop; details: dose 2.52 g/a
Procedure, shortened: as §2

[16] = tested on: bulrush; assay: Test Example 2: herbicidal effects during the vegetation period under submerged conditions; details: treatment during the vegetation period under submerged conditions; dose 2.52 g/a
Procedure, shortened: (§3)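 Barnyardgrass, bulrush and ducksalad were co-sown in alluvial soil flooded to 4 cm and grown in a greenhouse at 25 to 30° C. At the 1- or 2-leaf stage, water-diluted emulsifiable concentrates went onto the water surface at set doses (g/a). Herbicidal effect was scored three weeks later on a graded scale.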

[17] = tested on: barnyardgrass; assay: as above; details: treatment during the vegetation period under submerged conditions; dose 2.52 g/a
Procedure, shortened: as §3

[18] = tested on: ducksalad; assay: as above; details: treatment during the vegetation period under submerged conditions; dose 2.52 g/a
Procedure, shortened: as §3

[19] = tested on: giant foxtail; assay: Test Example 4: herbicidal effect in foliage treatment; details: dose 3.2 g/a, three weeks after application
Procedure, shortened: (§4)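 Herbicidal effect was rated on an evaluation scale three weeks after treatment. Plants had been raised 14 days at 25 to 30° C in sterilized diluvial soil, then received foliar sprays of emulsifiable concentrate diluted in water at predetermined doses expressed as g per are.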

[20] = tested on: beadstraw; assay: as above; details: dose 3.2 g/a, three weeks after application
Procedure, shortened: as §4

[21] = tested on: velvetleaf; assay: as above; details: dose 3.2 g/a, three weeks after application
Procedure, shortened: as §4

[22] = tested on: water foxtail; assay: as above; details: dose 3.2 g/a, three weeks after application
Procedure, shortened: as §4

[23] = tested on: common ragweed; assay: as above; details: dose 3.2 g/a, three weeks after application
Procedure, shortened: as §4

[24] = tested on: Italian ryegrass; assay: as above; details: dose 3.2 g/a, three weeks after application
Procedure, shortened: as §4

[25] = tested on: redroot pigweed; assay: as above; details: dose 3.2 g/a, three weeks after application
Procedure, shortened: as §4

[26] = tested on: common chickweed; assay: as above; details: dose 3.2 g/a, three weeks after application
Procedure, shortened: as §4

[27] = tested on: large crabgrass; assay: as above; details: dose 3.2 g/a, three weeks after application
Procedure, shortened: as §4

[28] = tested on: common lambsquater; assay: as above; details: dose 3.2 g/a, three weeks after application
Procedure, shortened: as §4

[29] = tested on: barnyardgrass; assay: as above; details: dose 3.2 g/a, three weeks after application
Procedure, shortened: as §4

[30] = tested on: posumbu knotweed; assay: as above; details: dose 3.2 g/a, three weeks after application
Procedure, shortened: as §4

With `CCOC(=O)N(c1ccccc1CN1COC(C)(CC)CC1=O)S(=O)(=O)C(F)(F)F` (stereo not drawn) [II-42] the “E: giant foxtail, herbicidal effect (evaluation scale 0-5)” value [1] was 1 (mortality of at least 5% and less than 20%), the “I: velvetleaf, herbicidal effect (evaluation scale 0-5)” value [2] was 5 (mortality of 90% or above (nearly complete death)) and the “G: water foxtail, herbicidal effect (evaluation scale 0-5)” value [3] was 5 (mortality of 90% or above (nearly complete death)). The “J: common ragweed, herbicidal effect (evaluation scale 0-5)” value [4] was 4 (mortality of at least 70% and less than 90%), the “H: Italian ryegrass, herbicidal effect (evaluation scale 0-5)” value [5] was 5 (mortality of 90% or above (nearly complete death)) and the “K: redroot pigweed, herbicidal effect (evaluation scale 0-5)” value [6] was 3 (mortality of at least 40% and less than 70%). For the same compound, the “N: common chickweed, herbicidal effect (evaluation scale 0-5)” value [7] was 5 (mortality of 90% or above (nearly complete death)), the “D: large crabgrass, herbicidal effect (evaluation scale 0-5)” value [8] was 5 (mortality of 90% or above (nearly complete death)) and the “L: common lambsquater, herbicidal effect (evaluation scale 0-5)” value [9] was 0 (mortality of less than 5% (almost ineffective)). For the same compound, the “A: barnyardgrass, herbicidal effect (evaluation scale 0-5)” value [10] was 5 (mortality of 90% or above (nearly complete death)), the “M: posumbu knotweed, herbicidal effect (evaluation scale 0-5)” value [11] was 4 (mortality of at least 70% and less than 90%) and the “B: bulrush, herbicidal effect (evaluation scale 0-5)” value (“B: bulrush, herbicidal effect” for short) [12] was 5 (mortality of 90% or above (nearly complete death)). The “A: barnyardgrass, herbicidal effect (evaluation scale 0-5)” value [13] was 5 (mortality of 90% or above (nearly complete death)), the “C: ducksalad, herbicidal effect (evaluation scale 0-5)” value (“C: ducksalad, herbicidal effect” below) [14] was 5 (mortality of 90% or above (nearly complete death)) and the “a: transplanted rice, effect on crop (evaluation scale 0-5)” value [15] was 0 (mortality of less than 5% (almost ineffective)). The “B: bulrush, herbicidal effect” value [16] was 5 (mortality of 90% or above (nearly complete death)), the “A: barnyardgrass, herbicidal effect (evaluation scale 0-5)” value [17] was 5 (mortality of 90% or above (nearly complete death)) and the “C: ducksalad, herbicidal effect” value [18] was 5 (mortality of 90% or above (nearly complete death)). The “E: giant foxtail, herbicidal effect” value [19] was 5 (mortality of 90% or above (nearly complete death)), the “O: beadstraw, herbicidal effect” value [20] was 3 (mortality of at least 40% and less than 70%) and the “I: velvetleaf, herbicidal effect” value [21] was 5 (mortality of 90% or above (nearly complete death)). The “G: water foxtail, herbicidal effect” value [22] was 5 (mortality of 90% or above (nearly complete death)), the “J: common ragweed, herbicidal effect” value [23] was 3 (mortality of at least 40% and less than 70%) and the “H: Italian ryegrass, herbicidal effect” value [24] was 3 (mortality of at least 40% and less than 70%). For the same compound, the “K: redroot pigweed, herbicidal effect” value [25] was 0 (mortality of less than 5% (almost ineffective)), the “N: common chickweed, herbicidal effect” value [26] was 4 (mortality of at least 70% and less than 90%) and the “D: large crabgrass, herbicidal effect” value [27] was 3 (mortality of at least 40% and less than 70%). The “L: common lambsquater, herbicidal effect” value [28] was 3 (mortality of at least 40% and less than 70%), the “A: barnyardgrass, herbicidal effect” value [29] was 5 (mortality of 90% or above (nearly complete death)) and the “M: posumbu knotweed, herbicidal effect” value [30] was 0 (mortality of less than 5% (almost ineffective)).
In the case of `CCC1(C)CC(=O)N(Cc2ccccc2N(C(=O)OCC(C)C)S(=O)(=O)C(F)(F)F)CO1` (stereo not drawn) [II-43], the “E: giant foxtail, herbicidal effect (evaluation scale 0-5)” value [1] is reported as 2 (mortality of at least 20% and less than 40%), the “I: velvetleaf, herbicidal effect (evaluation scale 0-5)” value [2] is reported as 5 (mortality of 90% or above (nearly complete death)) and the “G: water foxtail, herbicidal effect (evaluation scale 0-5)” value [3] is reported as 5 (mortality of 90% or above (nearly complete death)). The “J: common ragweed, herbicidal effect (evaluation scale 0-5)” value [4] was 3 (mortality of at least 40% and less than 70%), the “H: Italian ryegrass, herbicidal effect (evaluation scale 0-5)” value [5] was 5 (mortality of 90% or above (nearly complete death)) and the “K: redroot pigweed, herbicidal effect (evaluation scale 0-5)” value [6] was 2 (mortality of at least 20% and less than 40%). The “N: common chickweed, herbicidal effect (evaluation scale 0-5)” value [7] was 5 (mortality of 90% or above (nearly complete death)), the “D: large crabgrass, herbicidal effect (evaluation scale 0-5)” value [8] was 3 (mortality of at least 40% and less than 70%) and the “L: common lambsquater, herbicidal effect (evaluation scale 0-5)” value [9] was 5 (mortality of 90% or above (nearly complete death)). The “A: barnyardgrass, herbicidal effect (evaluation scale 0-5)” value [10] was 4 (mortality of at least 70% and less than 90%), the “M: posumbu knotweed, herbicidal effect (evaluation scale 0-5)” value [11] was 4 (mortality of at least 70% and less than 90%) and the “B: bulrush, herbicidal effect” value [12] was 5 (mortality of 90% or above (nearly complete death)). The “A: barnyardgrass, herbicidal effect (evaluation scale 0-5)” value [13] was 5 (mortality of 90% or above (nearly complete death)), the “C: ducksalad, herbicidal effect” value [14] was 5 (mortality of 90% or above (nearly complete death)) and the “a: transplanted rice, effect on crop (evaluation scale 0-5)” value [15] was 0 (mortality of less than 5% (almost ineffective)). For the same compound, the “B: bulrush, herbicidal effect” value [16] was 5 (mortality of 90% or above (nearly complete death)), the “A: barnyardgrass, herbicidal effect (evaluation scale 0-5)” value [17] was 5 (mortality of 90% or above (nearly complete death)) and the “C: ducksalad, herbicidal effect” value [18] was 5 (mortality of 90% or above (nearly complete death)). For the same compound, the “E: giant foxtail, herbicidal effect” value [19] was 4 (mortality of at least 70% and less than 90%), the “O: beadstraw, herbicidal effect” value [20] was 4 (mortality of at least 70% and less than 90%) and the “I: velvetleaf, herbicidal effect” value [21] was 5 (mortality of 90% or above (nearly complete death)). For the same compound, the “G: water foxtail, herbicidal effect” value [22] was 5 (mortality of 90% or above (nearly complete death)), the “J: common ragweed, herbicidal effect” value [23] was 3 (mortality of at least 40% and less than 70%) and the “H: Italian ryegrass, herbicidal effect” value [24] was 4 (mortality of at least 70% and less than 90%). For the same compound, the “K: redroot pigweed, herbicidal effect” value [25] was 0 (mortality of less than 5% (almost ineffective)), the “N: common chickweed, herbicidal effect” value [26] was 3 (mortality of at least 40% and less than 70%) and the “D: large crabgrass, herbicidal effect” value [27] was 1 (mortality of at least 5% and less than 20%). For the same compound, the “L: common lambsquater, herbicidal effect” value [28] was 2 (mortality of at least 20% and less than 40%), the “A: barnyardgrass, herbicidal effect” value [29] was 5 (mortality of 90% or above (nearly complete death)) and the “M: posumbu knotweed, herbicidal effect” value [30] was 0 (mortality of less than 5% (almost ineffective)).
